Results: the supplement of paper PMC4121296

Legend:
Settings in all cases: exposure: 5-72 hpf
[1] = test system: Danio rerio embryo (fli1:egfp); assay: heart rate at 72 hpf (beats per minute); higher = faster heart rate
Procedure: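 fli1:egfp zebrafish embryos exposed 5-72 hpf to chemical (0.05-50 µM, 0.1% DMSO) in 384-well plates; heart rate at 72 hpf quantified from stream acquisitions by semi-automated MetaXpress journal (peak counting); only embryos in concentrations passing survival/body-length criteria analyzed.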

[2] = test system: Danio rerio embryo (fli1:egfp); assay: body length at 72 hpf (µm); higher = longer body (less growth inhibition)
Procedure: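 Transgenic fli1:egfp zebrafish embryos (one per well, 384-well plate) exposed statically from 5 to 72 hpf at 28 °C to chemical (0.05-50 µM, 0.1% DMSO); at 72 hpf anesthetized and imaged on ImageXpress; body length of live, hatched, correctly oriented embryos measured by automated MetaXpress journal. Dead/unhatched/misoriented embryos have no value.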

[3] = test system: Danio rerio embryo (fli1:egfp); assay: pericardial area at 72 hpf (image area units (not stated)); higher = larger pericardial area (edema)
Procedure: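 fli1:egfp zebrafish embryos exposed 5-72 hpf to chemical (0.05-50 µM, 0.1% DMSO); pericardial area at 72 hpf measured by semi-automated MetaXpress journal (increase indicates edema).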

[4] = test system: Danio rerio embryo (fli1:egfp); assay: arterial (dorsal aorta) circulation score at 72 hpf (normalized DA-Max (arbitrary units)); higher = more circulation
Procedure: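 fli1:egfp zebrafish embryos exposed 5-72 hpf to chemical (0.05-50 µM, 0.1% DMSO); arterial circulation at 72 hpf quantified from stream acquisitions of the dorsal aorta by FFT-based analysis (DA-Max, normalized dorsal aorta signal); only concentrations passing survival/body-length criteria analyzed.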

[5] = test system: Danio rerio embryo (fli1:egfp); assay: intersegmental vessel area normalized to body length at 72 hpf (ISV area / body length (normalized units)); higher = more vessel area
Procedure: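 fli1:egfp zebrafish embryos exposed 5-72 hpf to chemical (0.05-50 µM, 0.1% DMSO); intersegmental vessel (ISV) eGFP area quantified by MetaXpress journal at 72 hpf and normalized to body length.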

CO/N=C(/C1=NOCCO1)c1ccccc1Oc1ncnc(Oc2ccccc2Cl)c1F [Fluoxastrobin]
Settings | arterial, [4] | body length at 72 hpf, [2] | heart rate at 72 hpf, [1] | intersegmental vessel area normalized, [5] | pericardial area at 72 hpf, [3]
0.0061 µM | 13.7 | 2970 | 182 | 70.3 | 12700
0.0122 µM | 15 | 2930 | 189 | 71.6 | 14000
0.0244 µM | 11.9 | 2900 | 188 | 76 | 13500
0.05 µM | 15.2 | 2970 | 194 | 79.4 | 14300
0.098 µM | 12.6 | 2980 | 198 | 82.8 | 14900
0.195 µM | 16.2 | 2990 | 198 | 75.3 | 14200
0.39 µM | 13.1 | 2970 | 194 | 77.9 | 15000
0.78 µM | 13.9 | 2940 | 191 | 67.2 | 13900
1.56 µM | 12.1 | 2910 | 177 | 80.3 | 17100
3.125 µM | 6.76 | 3010 | 161 | 64.8 | 28800

COC(=O)N(C(=O)N1CO[C@@]2(C(=O)OC)Cc3cc(Cl)ccc3C2=N1)c1ccc(OC(F)(F)F)cc1 [Indoxacarb]
Settings | arterial, [4] | body length at 72 hpf, [2] | heart rate at 72 hpf, [1] | intersegmental vessel area normalized, [5] | pericardial area at 72 hpf, [3]
0.05 µM | 9.56 | 2980 | 169 | 81.5 | 14200
0.098 µM | 10.3 | 3010 | 171 | 81.7 | 13400
0.195 µM | 10.5 | 2970 | 176 | 85.7 | 15600
0.39 µM | 8.96 | 2950 | 183 | 80.7 | 13200
0.78 µM | 8.19 | 2990 | 185 | 80.1 | 14100
1.56 µM | 10.8 | 2960 | 181 | 85.1 | 12300
3.125 µM | 9.26 | 3010 | 194 | 83.8 | 12700
6.25 µM | 10.5 | 3020 | 188 | 87.7 | 13000
12.5 µM | 14.1 | 2900 | 181 | 70.6 | 14200
